Source: patent US9809634B2, “Composition comprising branched multipeptide vaccine and vaccine comprising the same” (INDUSTRY FOUNDATION OF CHONNAM NATIONAL UNIVERSITY, priority 2015, dated 2017)

Tested on: T2 cell line expressing HLA-A2
Experiment: Binding capacity to T-lymphocyte of each subsequence residue (T2 cells, HLA-A2-FITC staining, flow cytometry)
Format: cell-based, human
Settings: T2 cells cultured overnight with peptide and beta2-microglobulin; FIG. 3; compared with the other subsequence residues of the same tumor antigen
Procedure: The binding capacity to T-lymphocyte, of each of the subsequence residues shown in Table 1 above, was measured (FIG. 3).
Measurement of binding capacity between T-lymphocyte and each of the subsequence residues
T2 cell line (Korea Cell Line Bank) is […] expressing HLA-A2. The peptide and beta2-microglobulin on T2 cells were cultured overnight, and the T2 cells were stained with antihuman HLA-A2-FITCmAb, and analyzed by a FACS Caliber flow cytometer and WinMDI software.
The binding capacity of subsequence residue was calculated from mean fluorescence with the peptide and mean fluorescence without the peptide according to the following Equation: […]

Sequence	binding capacity to T-lymphocyte
LLLFGLLGV (Peptide CD99-9) [SEQ ID NO: 10]	most excellent
LMLGEFLKL [SEQ ID NO: 9]	most excellent
